Laboratory results: patent US20200261421A1, “HETEROCYCLIC COMPOUNDS AS HIV PROTEASE INHIBITORS” (Merck Sharp & Dohme Corp., priority 2016, published 2020)

Target: T1, wild-type HIV-1 protease (Human immunodeficiency virus type 1 group M subtype B, UniProt P04585)
T1 construct: Escherichia coli expressed wild-type HIV-1 protease protein; made in house; host or cells: Escherichia coli
Experiment: Assay for Inhibition of Microbial Expressed HIV Protease
Assay type: biochemical
Conditions: Escherichia coli expressed wild-type HIV-1 protease, peptide substrate cleavage; mean of at least two independent experiments
Procedure: Inhibition of Escherichia coli expressed wild-type HIV-1 protease protein was carried out with a peptide substrate [Val-Ser-Gln-Asn-Wnaphtyl)Ala-Pro-Ile-Val]. The inhibitor compound was preincubated with HIV-1 protease enzyme in assay buffer (50 mM sodium acetate, pH 5.5, 100 mM NaCl, and 0.1% BSA) for 30 minutes at room temperature. Peptide substrate was added to 400 μM in a total volume of 20 μL containing 20 pM HIV-1 protease (final) after which the reaction was incubated for 1 hour at 30° C. The reaction was quenched by the addition of formic acid and HIV protease inhibitor indinavir to 0.012% and 150 nM final concentrations, respectively. Product formation was determined after separation of product and substrate on a ZORBAX Eclipse XDB-C18 column (Aligent Technologies, Santa Clara, Calif., USA) connected to an API 4000™ mass spectrometer (AB Sciex, Pte. Ltd., Concord Ontario, Canada) with multiple reaction monitoring (transitions were 644.5/428.9 and 615.4/422.2 (M1/M3) for product and indinavir respectively). The extent of inhibition of the reaction was determined from the peak area of the products. Analysis of the products, independently synthesized, provided quantitation standards and confirmation of the product composition. […] Ic50's refer to the 50% inhibition of the cleavage of a peptide substrate by hiv protease.
Data shown in the table reflects the mean of at least two independent experiments.

| SMILES | IC50 |
| --- | --- |
| CN(Cc1ccccc1S(C)(=O)=O)C(=O)c1cccc(CN2C(=N)NC(c3ccc(F)cc3)(c3ccc(F)cc3)C2=O)c1 [Example 52, 3-{[4,4-bis(4-fluorophenyl)-2-imino-5-oxoimidazolidin-1-yl]methyl}-N-methyl-N-[2-(methylsulfonyl)-benzyl]benzamide] | 48.3 nM |
| CN(C)C(=O)c1cccc(CN2C(=N)NC(c3ccc(F)cc3)(c3cccc(Br)c3)C2=O)c1 (stereo not drawn) [Example 53, 3-{[4-(3-bromophenyl)-4-(4-fluorophenyl)-2-imino-5-oxoimidazolidin-1-yl]methyl}-N,N-dimethylbenzamide] | 48.6 nM |
| CN(C)C(=O)c1cccc(CN2C(=N)NC(c3ccccc3)(c3ccc(-c4cccc(C#N)c4)cc3)C2=O)c1 (stereo not drawn) [Example 54, 3-{[4-(3'-cyanobiphenyl-4-yl)-2-imino-5-oxo-4-phenylimidazolidin-1-yl]methyl}-N,N-dimethylbenzamide] | 52.2 nM |
| CC(C)C[C@@]1(c2ccccc2)NC(=N)N([C@H](C)c2cccc(C(=O)N(C)Cc3ccc(F)cc3)c2)C1=O [Example 55, N-(4-fluorobenzyl)-3-((R)-1-((S)-2-imino-4-isobutyl-5-oxo-4-phenylimidazolidin-1-yl)ethyl)-N-methylbenzamide] | 52.9 nM |
| CN(C)C(=O)c1cccc(CN2C(=N)NC(c3ccccc3)(c3cccc(-c4ccco4)c3)C2=O)c1 (stereo not drawn) [Example 56, 3-{[4-(3-furan-2-ylphenyl)-2-imino-5-oxo-4-phenylimidazolidin-1-yl]methyl}-N,N-dimethylbenzamide] | 56.3 nM |
| CN(Cc1cccnc1)C(=O)c1cccc(CN2C(=N)NC(c3ccc(F)cc3)(c3ccc(F)cc3)C2=O)c1 [Example 57, 3-{[4,4-bis(4-fluorophenyl)-2-imino-5-oxoimidazolidin-1-yl]methyl}-N-methyl-N-(pyridin-3-ylmethyl)benzamide] | 58.9 nM |
| CN(C)C(=O)c1cccc(CN2C(=N)NC(c3ccc(F)cc3)(c3cccc(-c4cccc(C#N)c4)c3)C2=O)c1 (stereo not drawn) [Example 58, 3-{[4-(3'-cyanobiphenyl-3-yl)-4-(4-fluorophenyl)-2-imino-5-oxoimidazolidin-1-yl]methyl}-N,N-dimethylbenzamide] | 63.4 nM |
| CN(Cc1ccccn1)C(=O)c1cccc(CN2C(=N)NC(c3ccc(F)cc3)(c3ccc(F)cc3)C2=O)c1 [Example 59, 3-{[4,4-bis(4-fluorophenyl)-2-imino-5-oxoimidazolidin-1-yl]methyl}-N-methyl-N-(pyridin-2-ylmethyl)benzamide] | 65.9 nM |
| CN(Cc1cccc(S(C)(=O)=O)c1)C(=O)c1cccc(CN2C(=N)NC(c3ccc(F)cc3)(c3ccc(F)cc3)C2=O)c1 [Example 60, 3-{[4,4-bis(4-fluorophenyl)-2-imino-5-oxoimidazolidin-1-yl]methyl}-N-methyl-N-[3-(methylsulfonyl)benzyl]benzamide] | 69.2 nM |
| COc1ccccc1CN(C)C(=O)c1cccc(CN2C(=N)NC(c3ccc(F)cc3)(c3ccc(F)cc3)C2=O)c1 [Example 61, 3-{[4,4-bis(4-fluorophenyl)-2-imino-5-oxoimidazolidin-1-yl]methyl}-N-(2-methoxybenzyl)-N-methylbenzamide] | 76.7 nM |
| CN(C)C(=O)c1cccc(CN2C(=N)NC(c3ccccc3)(c3ccc(Br)cc3)C2=O)c1 (stereo not drawn) [Example 62, 3-{[4-(4-bromophenyl)-2-imino-5-oxo-4-phenylimidazolidin-1-yl]methyl}-N,N-dimethylbenzamide] | 77.3 nM |
| CN(C)C(=O)c1cccc(CN2C(=N)NC(c3ccccc3)(c3cccc(-c4ccccc4)c3)C2=O)c1 (stereo not drawn) [Example 63, 3-[(4-biphenyl-3-yl-2-imino-5-oxo-4-phenylimidazolidin-1-yl)methyl]-N,N-dimethylbenzamide] | 83.4 nM |
| CN(Cc1ccc(Cl)cc1)C(=O)c1cccc(CN2C(=N)NC(c3ccc(F)cc3)(c3cccc(-c4cccc(C#N)c4)c3)C2=O)c1 (stereo not drawn) [Example 64, N-(4-chlorobenzyl)-3-{[4-(3'-cyanobiphenyl-3-yl)-4-(4-fluorophenyl)-2-imino-5-oxoimidazolidin-1-yl]methyl}-N-methylbenzamide] | 86.9 nM |
| CN(Cc1ccccc1F)C(=O)c1cccc(CN2C(=N)NC(c3ccc(F)cc3)(c3ccc(F)cc3)C2=O)c1 [Example 65, 3-{[4,4-bis(4-fluorophenyl)-2-imino-5-oxoimidazolidin-1-yl]methyl}-N-(2-fluorobenzyl)-N-methylbenzamide] | 89.9 nM |
| CN(Cc1ccccc1Cl)C(=O)c1cccc(CN2C(=N)NC(c3ccc(F)cc3)(c3ccc(F)cc3)C2=O)c1 [Example 66, 3-{[4,4-bis(4-fluorophenyl)-2-imino-5-oxoimidazolidin-1-yl]methyl}-N-(2-chlorobenzyl)-N-methylbenzamide] | 90.5 nM |
| N#Cc1ccc(CNC(=O)c2cccc(CN3C(=N)NC(c4ccc(F)cc4)(c4ccc(F)cc4)C3=O)c2)cc1 [Example 67, 3-{[4,4-bis(4-fluorophenyl)-2-imino-5-oxoimidazolidin-1-yl]methyl}-N-(4-cyanobenzyl)benzamide] | 95.2 nM |
| CN(Cc1cccc(F)c1)C(=O)c1cccc(CN2C(=N)NC(c3ccc(F)cc3)(c3ccc(F)cc3)C2=O)c1 [Example 68, 3-{[4,4-bis(4-fluorophenyl)-2-imino-5-oxoimidazolidin-1-yl]methyl}-N-(3-fluorobenzyl)-N-methylbenzamide] | 96.6 nM |
| CC(C)CC1(c2cccc(F)c2)NC(=N)N(Cc2cccc(C(=O)N(C)Cc3ccc(C#N)cc3)c2)C1=O (stereo not drawn) [Example 69, N-(4-cyanobenzyl)-3-{[4-(3-fluorophenyl)-2-imino-4-(2-methylpropyl)-5-oxoimidazolidin-1-yl]methyl}-N-methylbenzamide] | 97.1 nM |
| CC(C)CC1(CC(C)C)NC(=N)N([C@H](C)c2cccc(C(=O)N(C)Cc3ccc(F)cc3)c2)C1=O [Example 70, N-(4-fluorobenzyl)-3-{(1R)-1-[2-imino-4,4-bis(2-methylpropyl)-5_ oxoimidazolidin-1-yl]ethyl}-N-methylbenzamide] | 99.1 nM |
| CC(C)CC1(c2ccccc2)NC(=N)N(Cc2ccc(Cl)c(C(=O)NCc3ccc(C#N)cc3)c2)C1=O (stereo not drawn) [Example 71, 2-chloro-N-(4-cyanobenzyl)-5-{[2-imino-4-(2-methylpropyl)-5-oxo-4-phenylimidazolidin-1-yl]methyl}benzamide] | 8.19 nM |
| CC(C)CC1(c2ccccc2)NC(=N)N(Cc2ccc(Cl)c(C(=O)NCc3ccc(F)cc3)c2)C1=O (stereo not drawn) [Example 72, 2-chloro-N-(4-fluorobenzyl)-5-{[2-imino-4-(2-methylpropyl)-5-oxo-4-phenylimidazolidin-1-yl]methyl}benzamide] | 9.5 nM |
| N=C1NC(c2ccccc2)(c2ccccc2)C(=O)N1Cc1ccc(Cl)c(C(=O)NCc2cnccn2)c1 [Example 73, 2-chloro-5-[(2-imino-5-oxo-4,4-diphenylimidazolidin-1-yl)methyl]-N-(pyrazin-2-ylmethyl)benzamide] | 11 nM |
| N#Cc1ccc(CNC(=O)c2cc(CN3C(=N)NC(c4ccccc4)(c4ccccc4)C3=O)ccc2Cl)cc1 [Example 74, 2-chloro-N-(4-cyanobenzyl)-5-[(2-imino-5-oxo-4,4-diphenylimidazolidin-1-yl)methyl]benzamide] | 11.4 nM |
| CC(C)CC1(c2ccccc2)NC(=N)N(Cc2ccc(Cl)c(C(=O)NCc3cnccn3)c2)C1=O (stereo not drawn) [Example 75, 2-chloro-5-{[2-imino-4-(2-methylpropyl)-5-oxo-4-phenylimidazolidin-1-yl]methyl}-N-(pyrazin-2-ylmethyl)benzamide] | 31.3 nM |
